{
  "source": "paper PMC4413051",
  "about": "“Glutamate 338 is an electrostatic facilitator of C–Co bond breakage in a dynamic/electrostatic model of catalysis by ornithine aminomutase” (The Febs Journal, 2015)",
  "key": {"[1]": {"target": "T1, ornithine 4,5-aminomutase (OAM) (Acetoanaerobium sticklandii, UniProt E3PY95, E335D)", "T1 construct": "gene oraE", "assay": "biochemical"}, "[2]": {"target": "T2, ornithine 4,5-aminomutase (OAM) (Acetoanaerobium sticklandii, UniProt E3PY95)", "T2 construct": "gene oraE; recombinant, expressed from pET-OAMH2 vector and purified; holoenzyme with PLP and AdoCbl; Glu338 (TIM barrel) and Lys629 lie in OraE", "T2 sequence (E3PY95 1-740)": "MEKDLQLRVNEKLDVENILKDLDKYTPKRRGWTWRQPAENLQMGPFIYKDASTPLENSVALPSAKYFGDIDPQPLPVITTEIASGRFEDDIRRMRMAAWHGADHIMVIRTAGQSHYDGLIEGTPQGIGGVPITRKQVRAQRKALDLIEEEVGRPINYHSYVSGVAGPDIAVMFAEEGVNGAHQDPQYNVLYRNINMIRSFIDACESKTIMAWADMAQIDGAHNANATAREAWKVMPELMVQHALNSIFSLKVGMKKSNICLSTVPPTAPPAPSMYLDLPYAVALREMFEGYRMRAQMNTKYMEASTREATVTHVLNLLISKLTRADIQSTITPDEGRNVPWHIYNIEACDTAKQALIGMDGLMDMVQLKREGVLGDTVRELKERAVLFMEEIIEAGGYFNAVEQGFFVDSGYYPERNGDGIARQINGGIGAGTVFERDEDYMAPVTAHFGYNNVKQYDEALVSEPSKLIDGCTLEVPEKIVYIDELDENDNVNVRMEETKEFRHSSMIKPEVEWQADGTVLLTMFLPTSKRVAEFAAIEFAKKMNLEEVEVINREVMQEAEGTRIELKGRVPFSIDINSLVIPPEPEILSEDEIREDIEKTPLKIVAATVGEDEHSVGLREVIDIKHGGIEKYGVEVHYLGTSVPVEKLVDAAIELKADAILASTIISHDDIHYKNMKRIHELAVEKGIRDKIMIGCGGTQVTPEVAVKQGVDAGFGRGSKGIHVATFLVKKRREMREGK", "T2 sequence (E3PY96 1-121 partner)": "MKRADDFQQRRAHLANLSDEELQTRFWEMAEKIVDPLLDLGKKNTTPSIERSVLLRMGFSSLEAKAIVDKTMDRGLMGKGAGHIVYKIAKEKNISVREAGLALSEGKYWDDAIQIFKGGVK", "assay": "anaerobic coupled DAPDH assay, NADH at […] nm", "assay_type": "biochemical", "details": "read-out: Ki(DAB)"}, "[3]": {"target": "T3, ornithine 4,5-aminomutase (OAM) (Acetoanaerobium sticklandii, UniProt E3PY95, E335Q)", "T3 construct": "gene oraE", "assay": "biochemical"}, "[4]": {"target": "T4, ornithine 4,5-aminomutase (OAM) (Acetoanaerobium sticklandii, UniProt E3PY95, E335A)", "T4 construct": "gene oraE", "assay": "biochemical"}},
  "data": [
    {"smiles": "NCCC(N)C(=O)O", "note": "(racemic) [D,L-2,4-diaminobutyric acid]", "values": [
      {"measurement": "Ki", "setting": "[1]", "result": "15.2 ± 1.5", "unit": "µM"},
      {"measurement": "Ki", "setting": "[2]", "result": "5.2 ± 0.1", "unit": "µM"},
      {"measurement": "Ki", "setting": "[3]", "result": "11.2 ± 0.1", "unit": "µM"},
      {"measurement": "Ki", "setting": "[4]", "result": "18.8 ± 2.2", "unit": "µM"}
    ]}
  ]
}
